As a reminder, the Cmax is the peak of the concentration-time curve. The AUC(0-t) is the area under the concentration-time curve up to a stated or last time point. High values mean high exposure, low ones low exposure. Broadly, the bioavailability is dose-corrected exposure relative to a reference, in per cent. A high value points to good availability. A word on the clearance: it is a measure of how efficiently the substance is removed, as volume per time. Low values mean inefficient removal, high ones efficient removal. For orientation: half-life means the time in which the quantity being followed falls by half.

The values that follow come from ChEMBL document CHEMBL4828744, “Design, synthesis and biological evaluation of pyridinylmethylenepiperidine derivatives as potent 5-HT1F receptor agonists for migraine therapy” (Eur J Med Chem, 2021).

Activity calls are given as the source filed them. The rule behind the calls is not given here. Where only a bound is given, the exact number is not on record here.

Data set [1] has as its target T1, 5-hydroxytryptamine receptor 1F (Homo sapiens) (UniProt P30939).
T1 sequence (whole entry): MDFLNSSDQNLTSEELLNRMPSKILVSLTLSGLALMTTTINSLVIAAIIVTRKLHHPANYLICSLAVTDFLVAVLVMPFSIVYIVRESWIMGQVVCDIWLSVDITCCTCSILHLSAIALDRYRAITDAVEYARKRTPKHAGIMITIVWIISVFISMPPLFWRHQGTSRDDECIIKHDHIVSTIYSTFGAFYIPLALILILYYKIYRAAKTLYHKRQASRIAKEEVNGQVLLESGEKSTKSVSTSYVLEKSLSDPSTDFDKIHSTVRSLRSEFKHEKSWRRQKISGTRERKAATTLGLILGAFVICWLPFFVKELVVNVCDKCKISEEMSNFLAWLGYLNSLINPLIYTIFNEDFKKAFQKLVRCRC
In words: Potency index, ratio of lasmiditan EC50 to test compound EC50 for agonist activity at 5HT1F receptor (unknown origin) expressed in HEK293 cells measured after 60 mins by Fluo-4AM dye based FLIPR assay. In kind it is functional, cell-based.

The nature of data set [2]: Cmax in Sprague-Dawley rat at 1 mg/kg, iv measured for 24 hrs by LC-MS/MS analysis. In kind it is ADME, organism-based. The note with it: in vivo. Set-up: route intravenous, dose 1 mg/kg, time 24 hrs.
A short description of data set [3]: AUC(0 to t) in Sprague-Dawley rat at 5 mg/kg, ig measured for 24 hrs by LC-MS/MS analysis. The class given is ADME, organism-based. Set-up: time 24 hrs, dose 5 mg/kg. Particulars: in vivo, po.
Data set [4] in a line: Bioavailability in Sprague-Dawley rat at 5 mg/kg, ig measured for 24 hrs by LC-MS/MS analysis. The note with it: in vivo, po. The class given is ADME, organism-based.
Data set [5] deals with T2, 5-hydroxytryptamine receptor 1F (Homo sapiens, UniProt P30939).
T2 sequence (P30939 whole entry): T1 sequence (whole entry)
As to the kind of experiment: Agonist activity at 5HT1F receptor (unknown origin) expressed in HEK293 cells measured after 60 mins by Fluo-4AM dye based FLIPR assay. The class given is functional, cell-based. Particulars: read-out: IC50 (the source's name).

The nature of data set [6]: Clearance in Sprague-Dawley rat at 1 mg/kg, iv measured for 24 hrs by LC-MS/MS analysis. The note with it: in vivo. In kind it is ADME, organism-based.
Data set [7] is described as follows: Half life in Sprague-Dawley rat at 5 mg/kg, ig measured for 24 hrs by LC-MS/MS analysis. The class given is ADME, organism-based. The note with it: in vivo, po.
A short description of data set [8]: Volume of distribution at steady state in Sprague-Dawley rat at 1 mg/kg, iv measured for 24 hrs by LC-MS/MS analysis. In kind it is ADME, organism-based. The note with it: in vivo, read-out: Vdss.
The nature of data set [9]: Cmax in Sprague-Dawley rat at 5 mg/kg, ig measured for 24 hrs by LC-MS/MS analysis. The class given is ADME, organism-based. On the set-up: route intragastric, time 24 hrs, dose 5 mg/kg. The note with it: in vivo, po.
Data set [10] can be described thus: AUC(0 to t) in Sprague-Dawley rat at 1 mg/kg, iv measured for 24 hrs by LC-MS/MS analysis. In kind it is ADME, organism-based. On the set-up: time 24 hrs, dose 1 mg/kg. The note with it: in vivo.
A short description of data set [11]: Half life in Sprague-Dawley rat at 1 mg/kg, iv measured for 24 hrs by LC-MS/MS analysis. The class given is ADME, organism-based. Particulars: in vivo.
Data set [12] is described as follows: Toxicity in NewZealand rabbit Saphenous vein rings assessed as induction of vasoconstriction at 1 to 100 uM. In kind it is tissue-based, Oryctolagus cuniculus. The note with it: dose 1-100 µM.
A short description of data set [13]: Toxicity in NewZealand rabbit Saphenous vein rings assessed as induction of vasoconstriction at 0.01 to 100 uM. The class given is tissue-based, Oryctolagus cuniculus. The note with it: dose 0.01-100 µM.
For data set [14], the system named is Rattus norvegicus. As to the kind of experiment: Antimigraine activity against electrical stimulation of trigeminal ganglion migraine Wistar rat model assessed as reduction in c-Fos-positive cells at 10 ug/kg, po measured after 60 mins by confocal fluorescence microscopic analysis. In kind it is functional, organism-based. Particulars: dose 10.0 µg/kg.
Data set [15] deals with Rattus norvegicus. As to the kind of experiment: Antimigraine activity against electrical stimulation of trigeminal ganglion migraine Wistar rat model assessed as reduction in dural plasma protein extravasation at 0.01 ug/kg, po measured after 45 mins by confocal fluorescence microscopic analysis. The class given is functional, organism-based. The note with it: dose 0.01 µg/kg.

Regarding `CN1CCC(=C(F)c2cccc(NC(=O)c3ccc(F)cc3)n2)CC1`, the Ratio EC50 in data set [1] stood at 3. Besides, the Cmax stood at 75.3 ng/mL in data set [2] and 34.1 ng/mL in [9]. Also, the area under the curve AUC(0-t) at 24 h in data set [3] amounted to 157 ng·h/mL; in data set [10], 104 ng·h/mL. The same compound had a bioavailability in data set [4] of 32.5%. For the same compound, the EC50 in data set [5] turned out to be 6.36 nM. In addition, the clearance in [6] stood at 156 mL/min/kg. Further, the half-life in [7] is 1.41 h; in data set [11] it was 1.37 h. Besides, in data set [8], the Vd was determined as 17.3 L/kg.

Take `CCN1CCC(=C(F)c2cccc(NC(=O)c3c(F)cc(F)cc3F)n2)CC1`: the EC50 in data set [5] was 178 nM.

For `CN1CCC(=C(F)c2cccc(NC(=O)c3ccc(Cl)cc3)n2)CC1`, the Ratio EC50 in data set [1] amounted to 3. For the same compound, the maximum concentration (Cmax) in data set [2] came to 61 ng/mL; in data set [9], 35.7 ng/mL. The figures for the area under the curve AUC(0-t) at 24 h in data set [3] and in data set [10] were 151 ng·h/mL and 89.4 ng·h/mL, respectively. In data set [4], this compound came in with a bioavailability of 39%. Also, the EC50 in [5] is 29.3 nM. Besides, the clearance in data set [6] was 180 mL/min/kg. Also, the half-life in data set [7] is 2.41 h; in [11] it was 1.6 h. Further, in [8], the Vd was found to be 20.3 L/kg.

As to `CNS(=O)(=O)Cc1ccc2[nH]cc(CCN(C)C)c2c1` [SUMATRIPTAN], in data set [12], the Activity result is given as “Toxic”.

`CN1CCC(=C(F)c2cccc(NC(=O)c3ccc(F)cc3F)n2)CC1`: the Ratio EC50 in data set [1] is 3. Moreover, the values for the Cmax in data set [2] and in [9] were 74.4 ng/mL and 9.71 ng/mL, respectively. Further, the values for the AUC(0-t) at 24 h in [3] and in [10] were 44.6 ng·h/mL and 70.4 ng·h/mL, respectively. Further, in data set [4], the bioavailability worked out at 12.9%. Further, in data set [5], the EC50 amounted to 4.67 nM. For the same compound, the clearance in data set [6] was 229 mL/min/kg. Also, the half-life in [7] was 0.824 h; in [11], 1.05 h. For the same compound, the Vd in [8] stood at 17.7 L/kg.

For `O=C(Nc1cccc(C(F)=C2CCN(C(F)(F)F)CC2)n1)c1c(F)cc(F)cc1F`, the EC50 in data set [5] is over 10000 nM.

As for `O=C(Nc1cccc(C(F)=C2CCN(C(F)F)CC2)n1)c1c(F)cc(F)cc1F`, the EC50 in data set [5] worked out at 813 nM.

Consider `CN1CCC(=C(F)c2cccc(NC(=O)c3ccc(Cl)cc3F)n2)CC1`, for which the Ratio EC50 in [1] came to 3. Further, the Cmax in data set [2] turned out to be 72.2 ng/mL; in [9] it was 23.2 ng/mL. For the same compound, the AUC(0-t) at 24 h in [3] is 105 ng·h/mL; in data set [10], 90.5 ng·h/mL. Also, the bioavailability in [4] stood at 26.2%. In addition, the EC50 in [5] was found to be 23.4 nM. This compound also yielded a clearance in [6] of 178 mL/min/kg. For the same compound, the half-life in data set [7] was 1.68 h; in [11], 1.42 h. The Vd in data set [8] came to 20.1 L/kg.

Regarding `CN1CCC(=C(F)c2cccc(NC(=O)c3ccc(F)cn3)n2)CC1`, the Cmax worked out at 94.9 ng/mL in [2] and 34.7 ng/mL in data set [9]. In addition, the exposure AUC(0-t) at 24 h in data set [3] was 121 ng·h/mL; in [10] it was 103 ng·h/mL. In [4], this compound gave a bioavailability of 23.7%. In addition, the EC50 in [5] is 24.3 nM. Moreover, the clearance in data set [6] worked out at 159 mL/min/kg. The values for the half-life in [7] and in data set [11] were 1.24 h and 0.924 h, respectively. In [8], the Vd came to 11 L/kg.

On to `CN1CCC(=C(F)c2cccc(NC(=O)c3ccc(Cl)cn3)n2)CC1`, for which the EC50 in data set [5] came to 161 nM.

With `CN1CCC(C(=O)c2cccc(NC(=O)c3c(F)cc(F)cc3F)n2)CC1` [LASMIDITAN], the Activity entry in data set [13] was “Non-Toxic”. In addition, the peak concentration (Cmax) in [2] stood at 28.1 ng/mL; in data set [9], 90.9 ng/mL. For the same compound, the values for the area under the curve AUC(0-t) at 24 h in data set [3] and in [10] were 386 ng·h/mL and 105 ng·h/mL, respectively. Also, in data set [4], the bioavailability is 63.2%. Also, the clearance in data set [6] was 127 mL/min/kg. Further, the half-life was 3.38 h in data set [7] and 3.12 h in data set [11]. For the same compound, in data set [8], the Vd stood at 32.2 L/kg. For the same compound, the result with Rattus norvegicus [14] and in the data set with Rattus norvegicus [15] was Active.

As to `O=C(Nc1cccc(C(F)=C2CCN(C3CC3)CC2)n1)c1c(F)cc(F)cc1F`, the EC50 in data set [5] is 570 nM.
